In this assay the target is T1, Na+/K+-ATPase α1,2,3 subunit.
T1 construct: gene ATP1A1; Na+/K+-ATPase α1,2,3 subunit of porcine cortex (Sigma)
Briefly: ATPase activity, malachite green Pi release, […] min pre-incubation. It is filed as biochemical, Sus scrofa.

The source of these data is paper PMC5355295, “A new semisynthetic cardenolide analog 3β-[2-(1-amantadine)- 1-on-ethylamine]-digitoxigenin (AMANTADIG) affects G2/M cell cycle arrest and miRNA expression profiles and enhances proapoptotic survivin-2B expression in renal cell carcinoma cell lines” (Oncotarget, 2017).

By IC50 is commonly meant the concentration that inhibits the measured activity by half. High values mean lower potency, low ones higher potency. For `CO[C@H]1[C@@H](O)C[C@H](O[C@H]2[C@@H](O)C[C@H](O[C@H]3[C@@H](O)C[C@H](O[C@H]4CC[C@@]5(C)[C@H](CC[C@@H]6[C@@H]5C[C@@H](O)[C@]5(C)[C@@H](C7=CC(=O)OC7)CC[C@]65O)C4)O[C@@H]3C)O[C@@H]2C)O[C@@H]1C` [β-methyldigoxin], the IC50 was determined as 16.7 µM.
